Values quoted from earlier work in patent publication US20200396993A1, “COMPOSITIONS AND METHODS FOR RELEASE OF CYCLOPROPENES” (Hazel Technologies, Inc., priority 2017, published 2020).
Converted amounts (≈) assume the structure as drawn.

Settings: in water

Q: Which solubility does the source give for `CC1=CC1` [Sample 1-MCP, 1-methylcyclopropene] here?
A: 137 µg/mL (≈ 2530 µM)
